SMILES | melting point
COc1ccc2c(c1)CCC1C2=CCC2(C)C(=O)CCC12 (configuration not stated) | 139 to 143 °C
COc1ccc2c(c1)nnc1cc(OC)ccc12 | 200 to 202 °C
O=C(O)C(Cc1ccccc1)NCC1c2c(c3ccccc3c3ccccc23)-c2c1c1ccccc1c1ccccc21 (configuration not stated) | 178 to 180 °C
CCN1C(=O)CNCc2cc(OC)c(N)cc21 | 69 to 73 °C
CCOC(=O)C(CCc1ccccc1)N[C@H]1CSC(c2ccccc2)N(CC(=O)O)C1=O (some centres not stated) | 47 to 52 °C
CC(C)(C)NC(=O)CN1C(=O)C(NC(=O)Nc2cccc(Cl)c2)CC(C2CCCCC2)c2ccccc21 (configuration not stated) | 223 to 226 °C
O=CNc1nc(S(=O)(=O)Nc2c(F)cccc2F)n[nH]1 | 258 to 260 °C
CCOC(=O)NNC(=O)Cl | 77 to 80 °C
COC(=O)Cn1c(=O)c(=O)[nH]c2cc([N+](=O)[O-])c(Cl)cc21 | > 260 °C
Cc1nc2ccccc2c(=O)o1 | 79 to 81 °C
CCCc1sc(C#N)c2c1C(=O)CC(C)(C)C2 | 38 to 40 °C
Nc1ncc(-c2ccnc(N3CCOCC3)n2)c2ccccc12 | 255 to 256 °C
CC(C)OC(=O)C(C)(C)Oc1ccc(C(=O)c2ccc(O)cc2)cc1 | 124 °C
COc1ccc(F)cc1C(C)(C)CC(O)(Cn1[nH]c(=O)c2ccccc21)C(F)(F)F (configuration not stated) | 141 to 144 °C
O=C(NC1CCN(CCCC2=CCc3ccccc32)CC1)c1ccccc1 | 157 to 159 °C
Nc1cc(Cl)cc2c1NCCC2=O | 142 to 144 °C
C[C@@H](O)C(=O)OC(C)(C)C | 41 to 42 °C
O=Cc1ccc(Cc2ccccc2)cc1 | 142 to 144 °C

The remaining lines, values ahead:

melting point | SMILES
120 to 123 °C | O=C(CN1CCC(Cc2ccc(F)cc2)CC1)Nc1ccc([N+](=O)[O-])cc1
161 to 162 °C | CNc1cnn(-c2ccc(F)cc2)c(=O)c1-c1cccc(C(F)(F)F)c1
158 to 160 °C | O=C1CCC(N2C(=O)c3cccc(NCCOCc4ccccc4)c3C2=O)C(=O)N1 (configuration not stated)
290 to 295 °C | O=c1[nH]c2cc(Br)c3c(c2[nH]c1=O)CN(CCc1ccccc1)CC3
196 to 198 °C | Cc1nc(-n2ccc(OCC3CCCC3)cc2=O)sc1C(=O)NCc1ccccc1
148 °C | Cc1cccc2c(=O)cc(N3CCOCC3)oc12
81 to 82 °C | Cc1coc(N(CCCC(=O)O)C(=O)C(C)C)n1
104 to 105 °C | CCN1C=C(C(=O)c2c(C)nn3ccccc23)CCC1
145 to 147 °C | CN(CCCCCC(=O)NO)C(=O)/C=C/C=C/c1ccccc1
90 to 92 °C | CC(C)(C)OC(=O)C(C#N)C(=O)c1cc(F)c(F)c(F)c1F (configuration not stated)
196 to 202 °C | O=C1CNc2cc([N+](=O)[O-])c(F)cc2O1
206 °C | CSc1ncc(CCN2CCC(C3(c4ccc(F)cc4)OCCO3)CC2)c(O)n1
120 to 122 °C | Cc1ncc2c(n1)-c1ccc(Cl)cc1C(c1ccccc1)=NC2
126 to 128 °C | O=C(O)c1ccc(OC(F)F)c(OC2CCCC2)c1
144 to 146 °C | O=C(NCCOc1ccc(CC(Oc2cc(F)c(F)c(F)c2)C(=O)O)cc1)c1ccc(-c2ccccn2)cc1 (configuration not stated)
147 to 148 °C | O=C(Nc1ccc2[nH]c(=O)oc2c1)C(=O)N1CCC(Cc2ccc(Cl)cc2)CC1
> 300 °C | Fc1ccc(-c2[nH]cc(-c3c(F)c(F)nc(F)c3F)c2-c2ccncc2)cc1
88 to 90 °C | CCCCCCC(=O)Nc1ccc(-n2nc(C(F)(F)F)cc2C(F)(F)F)cc1
103 to 106 °C | OCCOC(c1ccccc1)(c1ccccc1)c1ccccc1
278 to 280 °C | COc1cc(C=CC(=O)Nc2cnc3cc(C)c(C)cc3c2-c2ccccc2Cl)cc(OC)c1O
158 °C | COc1cc(-c2[nH]c(SC)nc2-c2ccc(F)cc2)ccn1
222 to 228 °C | COc1cc2ncc(C#N)c(Nc3cccc(N)c3)c2cc1OC
47 to 48 °C | COc1ccc(Br)cc1N1CCCC1
220 to 223 °C | O=S1(=O)NC(C2CCCCC2)=Nc2cccc(CO)c21
